Columns and labels:
[1] = tested on: 5-HT release in the brain; conditions: literature reports; cited from earlier work
[2] = target: T1, recombinant rat α1β2γ2 GABAA receptors (Rattus norvegicus, UniProt P62813); assay: Whole-cell patch-clamp, modulation of GABA (EC20)-induced currents in transfected HEK 293 cells, α1β2γ2; format: cell-based
T1 construct: expressed in transfected cells; host or cells: HEK 293
Description: (§1) For electrophysiological recording HEK-293 cells were passaged and replated on 12-mm glass coverslips located in 9.6-cm plastic dishes filled with 10 ml of Minimum Essential Medium (MEM, Gibco) supplemented with 158 mg/l sodium bicarbonate, 2 mM glutamine (Gibco), 100 U/ml penicillin-streptomycin (Gibco), and 10% foetal calf serum (Gibco). Cultures were maintained at 37° C. in a humidified […]/5% CO2 atmosphere for 2-3 days.
(§2) Transfection with recombinant rat GABAA receptors was carried out as described in detail (Korpi and Lüddens, 1993, Lüddens and Korpi, 1995b). Briefly, HEK 293 cells were transfected in triple combinations using the phosphate precipitation method with rat GABAA receptor cDNAs in eukaryotic expression vectors (Pritchett, 1990) for the α, β and γ subunits. For optimal receptor expression, final concentrations (μg vector DNA per 9.6 cm tissue culture plate) were: α1, 2; α2 4.8; α3, 1.2; α4, 10; α5, 0.8; β2, 0.4; and γ2S, 0.3. The γ2S variant is abbreviated γ2 in the remainder of the text. To identify transfected cells all subunit combinations were co-transfected with 1 μg per plate of pNI-EGFP.
(§3) Two days after transfection single coverslips containing HEK 293 cells were placed in a recording chamber mounted on the movable stage of a fluorescence microscope (Olympus IX70) and perfused with a defined saline solution containing (in mM): 130 NaCl, 5.4 KCl, 2 CaCl2, 2 MgSO4, 10 glucose, 5 sucrose, and 10 HEPES (free acid), pH adjusted to 7.35 with about 35 mM NaOH. Transfected cells were identified by their green fluorescence due to the expression of the pNI-EGFP vector and ligand-mediated membrane currents of these cells were studied in the whole-cell configuration of the patch-clamp technique (Hamil et al., 1981). Patch-clamp pipettes were pulled from hard borosilicate capillary glass (0.5 mm ID, 1.5 mm OD, Vitrex, Science Products GmbH, Hofheim, Germany) using a horizontal puller (Sutter Instruments, CA, Model P-97) in a multi-stage process.
(§4) Seal resistances >1 GΩ were routinely obtained by applying gentle suction to the pipettes. Membrane rupture was monitored electrically as an increase in capacity. Pipette capacitance, membrane capacitance, and series resistance were electronically compensated to achieve minimal capacitative transients. A series resistance compensation of >60% was regularly used.
(§5) In all cells recorded the presence of the γ2 subunit in the heteropentamere was monitored by the application of 1 μM zolpidem plus the EC20 of GABA before testing the experimental drugs.
(§6) Responses of the cells were recorded by a patch-clamp amplifier (EPC-8, HEKA-Electronic, Lambrecht, Germany) in conjunction with a standard personal computer and the pClamp 8.1 software package (Axon Instruments, Foster City, Calif.). The standard holding-potential for the cells was −40 mV. Whole cell currents were low-pass filtered by an eight-pole Bessel filter at 5 or 3 kHz before being digitised by a Digidata 1322A interface (Axon Instruments, Foster City, Calif.) and recorded by the computer at a sampling rate of at least […].
(§7) Efficacy, potency, and GABAA receptor a subunit specificity of the new compound ELB139 was tested with the whole cell configuration of the patch-clamp technique by applying increasing drug concentration together with GABA of the approximate EC20 on green fluorescing cells. BZ binding site specificity of the new compound was tested on the same cells in an identical experimental setting with additionally applying 10 μM Ro15-1788.

[3] = target: T2, recombinant rat α5β2γ2 GABAA receptors (Rattus norvegicus, UniProt P19969); assay: Whole-cell patch-clamp, modulation of GABA (EC20)-induced currents in transfected HEK 293 cells, α5β2γ2; format: cell-based
T2 construct: expressed in transfected cells; host or cells: HEK 293
T2 sequence (P19969 32-464 limits assumed): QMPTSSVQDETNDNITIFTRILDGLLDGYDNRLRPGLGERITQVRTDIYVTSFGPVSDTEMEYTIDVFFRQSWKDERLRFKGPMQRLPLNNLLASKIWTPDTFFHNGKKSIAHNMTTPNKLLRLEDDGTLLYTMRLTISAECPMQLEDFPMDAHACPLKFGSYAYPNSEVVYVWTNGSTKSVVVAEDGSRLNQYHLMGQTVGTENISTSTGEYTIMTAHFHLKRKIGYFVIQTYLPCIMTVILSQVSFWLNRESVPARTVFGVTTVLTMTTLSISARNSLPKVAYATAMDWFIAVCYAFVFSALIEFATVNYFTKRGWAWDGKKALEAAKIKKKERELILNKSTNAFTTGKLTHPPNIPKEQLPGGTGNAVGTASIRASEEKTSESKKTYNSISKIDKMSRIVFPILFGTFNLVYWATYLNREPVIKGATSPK
Description: as §1, §2, §3, §4, §5, §6, §7

[4] = target: T3, recombinant rat α2β2γ2 GABAA receptors (Rattus norvegicus, UniProt P23576); assay: Whole-cell patch-clamp, modulation of GABA (EC20)-induced currents in transfected HEK 293 cells, α2β2γ2; format: cell-based
T3 construct: expressed in transfected cells; host or cells: HEK 293
T3 sequence (P23576 29-451): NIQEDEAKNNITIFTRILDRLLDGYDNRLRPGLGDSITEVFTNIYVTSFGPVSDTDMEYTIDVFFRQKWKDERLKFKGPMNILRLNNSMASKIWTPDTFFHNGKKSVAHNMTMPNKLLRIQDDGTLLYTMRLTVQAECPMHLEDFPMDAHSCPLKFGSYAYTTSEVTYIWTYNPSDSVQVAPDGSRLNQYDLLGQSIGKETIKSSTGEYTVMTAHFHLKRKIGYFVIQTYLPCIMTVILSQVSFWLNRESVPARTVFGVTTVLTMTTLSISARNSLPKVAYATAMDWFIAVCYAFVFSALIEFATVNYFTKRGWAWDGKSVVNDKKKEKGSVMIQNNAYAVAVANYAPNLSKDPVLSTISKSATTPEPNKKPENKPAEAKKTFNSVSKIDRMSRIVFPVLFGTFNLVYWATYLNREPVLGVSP
Description: as §1, §2, §3, §4, §5, §6, §7

[5] = target: T4, recombinant rat α4β2γ2 GABAA receptors (Rattus norvegicus, UniProt P28471); assay: Whole-cell patch-clamp, modulation of GABA (EC20)-induced currents in transfected HEK 293 cells, α4β2γ2; format: cell-based; conditions: α4-containing receptors; diazepam up to 1 μM, ELB139 at all concentrations tested
T4 construct: expressed in transfected cells; host or cells: HEK 293
T4 sequence (P28471 36-552): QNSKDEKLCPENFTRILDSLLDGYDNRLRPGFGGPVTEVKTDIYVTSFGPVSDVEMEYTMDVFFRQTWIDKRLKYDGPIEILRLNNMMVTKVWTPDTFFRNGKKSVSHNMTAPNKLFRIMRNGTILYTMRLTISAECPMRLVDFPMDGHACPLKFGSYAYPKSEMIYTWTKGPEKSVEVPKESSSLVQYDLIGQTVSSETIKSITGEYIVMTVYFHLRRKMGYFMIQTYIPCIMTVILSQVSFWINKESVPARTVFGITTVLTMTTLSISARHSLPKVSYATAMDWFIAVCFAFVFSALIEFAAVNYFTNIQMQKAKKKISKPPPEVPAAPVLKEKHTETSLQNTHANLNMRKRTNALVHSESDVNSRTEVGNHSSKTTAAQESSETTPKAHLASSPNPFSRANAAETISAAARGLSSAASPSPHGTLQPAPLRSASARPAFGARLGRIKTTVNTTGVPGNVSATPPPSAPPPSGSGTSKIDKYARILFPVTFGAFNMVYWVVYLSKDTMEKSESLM
Description: as §1, §2
as §3, with “Patch-clamp pipettes were pulled from hard borosilicate capillary glass (0.5 mm ID, 1.5 mm OD, Vitrex, Science Products GmbH, Hofheim, Germany) using a horizontal puller (Sutter Instruments, CA, Model P-97) in a multi-stage process.” left out
Seal resistances >1 GΩ were routinely obtained by applying gentle suction to the pipettes. Membrane rupture was monitored electrically as an increase in capacity. […]
In all cells recorded the presence of the γ2 subunit in the heteropentamere was monitored by the application of 1 μM zolpidem plus the EC20 of GABA before testing the experimental drugs. […]

[6] = target: T5, recombinant rat α3β2γ2 GABAA receptors (Rattus norvegicus, UniProt P20236); assay: Whole-cell patch-clamp, modulation of GABA (EC20)-induced currents in transfected HEK 293 cells, α3β2γ2; format: cell-based
T5 construct: expressed in transfected cells; host or cells: HEK 293
T5 sequence (P20236 29-493): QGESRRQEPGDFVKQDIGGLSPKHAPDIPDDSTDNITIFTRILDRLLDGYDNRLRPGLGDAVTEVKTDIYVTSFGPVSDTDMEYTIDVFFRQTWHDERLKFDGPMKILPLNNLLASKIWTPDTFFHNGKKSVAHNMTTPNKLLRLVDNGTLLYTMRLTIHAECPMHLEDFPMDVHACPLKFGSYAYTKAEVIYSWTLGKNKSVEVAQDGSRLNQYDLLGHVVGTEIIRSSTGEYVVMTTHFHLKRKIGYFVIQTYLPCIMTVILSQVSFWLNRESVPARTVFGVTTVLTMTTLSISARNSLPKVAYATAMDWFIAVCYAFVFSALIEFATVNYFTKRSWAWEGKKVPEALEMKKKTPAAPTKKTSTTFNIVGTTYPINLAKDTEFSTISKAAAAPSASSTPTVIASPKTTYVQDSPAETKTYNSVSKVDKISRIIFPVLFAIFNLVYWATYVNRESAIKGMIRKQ
Description: as §1, §2, §3, §4, §5, §6, §7

male Wistar rats = assay: Rat forced swim test; format: in vivo; conditions: 10 and 30 mg/kg p.o., 23, 5 and 1 h prior to testing
Description: All animals were treated with verum or vehicle three times: shortly after the habituation session (23 h), 5 and 1 h prior to testing. All drugs were administered orally with an application volume of 1 ml/kg.
The animals were tested in a glass tank (23×30 cm, height 40 cm) filled to a depth of 28 cm with water at 22° C. (the animals could not touch the bottom). The glass tank was illuminated indirectly and was surrounded by dark brown shading walls (distance from the tank 20 cm) to prevent the view on the experimenter. The experiments were performed between 14:00 and 17:00 hours and the method was in general performed as described (Porsolt et al., 1979; Lucki, 1997).
On the first experimental day, rats were gently placed in the water for a 15 min period of habituation. On removal from the water, they were placed in a standard plexiglass box, the floor covered with paper towels, under an infrared heater for 30 min to dry. The next day, they were once more placed gently in the glass tank and observed for 5 min. The behaviour of the animals was video-taped.
Following the experiment the video tapes were analysed manually and the duration of the following behaviours was recorded: Immobility: floating and making only those movements necessary to keep the nose above the water. […] Climbing: when rats strongly move their forepaws in and out of the water, usually against the walls.

[7] = tested on: female Wistar rats, MK-801-induced stereotypies, hyperactivity and ataxia; assay: MK-801-induced behaviour, rat model of psychosis (Example 1); format: in vivo; conditions: 0.5 mg/kg i.p. 1 h prior to test; MK-801 0.2 mg/kg i.p.; p<0.001
Description: (§8) The behaviour induced by the NMDA antagonist MK-801 is generally accepted as a rat model of psychosis. MK-801 induces stereotypies, hyperactivity and ataxia in rats after intraperitoneal administration.
Locomotor activity of the rats is recorded by the MotiTest Apparatus (TSE, Bad Homburg, Germany). The test area consisted of a squared arena ([…] with protective plexiglass walls (20 cm of height) where rats could freely move. Horizontal movements were recorded by 32 infrared photocells arranged along the bottom of each wall of the arena. Vertical movements (rearings) were recorded by a horizontal row of 32 infrared photocells 12 cm above the floor. The following parameters are measured by the computer program “ActiMot” (TSE, Bad Homburg, Germany): • active time [s] and total distance travelled [m]
(§9) Stereotypies, divided into stereotyped sniffing and other stereotypies, and ataxia are scored by the experimenter every five minutes for one hour (12 intervals) according to the method described by Andiné et al. (1999). The scores of the 12 intervals are added for each parameter.
The day of experiment the female rats are placed in the laboratory and receive the test compound, the reference substance or vehicle at the appropriate time prior to test. MK-801 0.2 mg/kg is intraperitoneally administered 10 minutes prior to test.
(§10) At the beginning of the test the rats are placed in the centre of the squared arena of the MotiTest apparatus. Behaviour of the rats is recorded for one hour. After each run animals are removed and the boxes thoroughly cleaned and dried.

[8] = tested on: female Wistar rats, MK-801-induced stereotypies, hyperactivity and ataxia; assay: MK-801-induced psychosis-related behaviour and reversibility by flumazenil (Example 7); format: in vivo, rat
Description: Apart from the haloperidol rats which received haloperidol 30 minutes and MK-801 10 minutes prior to the test, the other test groups received haloperidol, ELB139 or vehicle 60 minutes prior to test, saline or flumazenil 20 minutes prior to test and MK-801 10 minutes prior to test.
as §8
Locomotor activity of the rats is recorded by the MotiTest Apparatus (TSE, Bad Homburg, Germany). The test area consisted of a squared arena (45×45 cm) with protective plexiglass walls (20 cm of height) where rats could freely move. Horizontal movements were recorded by 32 infrared photocells arranged along the bottom of each wall of the arena. Vertical movements (rearings) were recorded by a horizontal row of 32 infrared photocells 12 cm above the floor. The following parameters were measured by the computer program “ActiMot” (TSE, Bad Homburg, Germany): • 1. active time [s] • 2. total distance travelled [m]
as §9
The day of experiment the female rats are placed in the laboratory and receive the test compound, the reference substance or vehicle at the appropriate time prior to test. […]
as §10

alpha 2 receptors = alpha 2 receptors (UniProt P18508+P47869); conditions: cited from earlier work
Sequence of alpha 2 receptors (P47869 29-451): as the sequence (P23576 29-451) above, with S88L, P174A, G330A counted along it
Sequence of alpha 2 receptors (P63138 25-474 partner limits assumed): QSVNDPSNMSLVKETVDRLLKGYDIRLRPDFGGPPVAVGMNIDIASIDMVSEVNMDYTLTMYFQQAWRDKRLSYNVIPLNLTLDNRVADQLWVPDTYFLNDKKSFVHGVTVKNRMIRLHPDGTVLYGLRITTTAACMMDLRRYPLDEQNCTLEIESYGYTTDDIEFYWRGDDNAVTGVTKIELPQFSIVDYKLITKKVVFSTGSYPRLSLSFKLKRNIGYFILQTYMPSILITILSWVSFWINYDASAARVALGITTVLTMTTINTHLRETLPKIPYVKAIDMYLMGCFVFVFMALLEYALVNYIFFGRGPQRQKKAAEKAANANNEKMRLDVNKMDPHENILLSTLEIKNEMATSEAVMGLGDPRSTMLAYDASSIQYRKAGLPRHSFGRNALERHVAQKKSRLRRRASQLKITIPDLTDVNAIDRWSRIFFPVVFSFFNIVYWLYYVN
Sequence of alpha 2 receptors (P18508 39-466): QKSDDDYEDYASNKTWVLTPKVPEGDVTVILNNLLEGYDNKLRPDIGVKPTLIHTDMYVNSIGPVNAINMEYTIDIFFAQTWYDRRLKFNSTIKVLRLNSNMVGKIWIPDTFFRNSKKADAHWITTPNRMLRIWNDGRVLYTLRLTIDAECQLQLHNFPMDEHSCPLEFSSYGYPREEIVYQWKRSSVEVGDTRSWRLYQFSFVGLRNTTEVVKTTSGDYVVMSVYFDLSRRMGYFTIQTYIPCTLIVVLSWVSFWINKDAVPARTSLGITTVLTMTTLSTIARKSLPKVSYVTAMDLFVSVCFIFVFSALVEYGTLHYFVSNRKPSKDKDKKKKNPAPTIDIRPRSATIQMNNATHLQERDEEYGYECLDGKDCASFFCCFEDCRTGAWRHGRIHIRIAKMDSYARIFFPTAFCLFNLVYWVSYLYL

[9] = target: alpha 5 containing receptors (UniProt P18508+P31644); conditions: cited from earlier work
Sequence of alpha 5 containing receptors (P31644 32-462): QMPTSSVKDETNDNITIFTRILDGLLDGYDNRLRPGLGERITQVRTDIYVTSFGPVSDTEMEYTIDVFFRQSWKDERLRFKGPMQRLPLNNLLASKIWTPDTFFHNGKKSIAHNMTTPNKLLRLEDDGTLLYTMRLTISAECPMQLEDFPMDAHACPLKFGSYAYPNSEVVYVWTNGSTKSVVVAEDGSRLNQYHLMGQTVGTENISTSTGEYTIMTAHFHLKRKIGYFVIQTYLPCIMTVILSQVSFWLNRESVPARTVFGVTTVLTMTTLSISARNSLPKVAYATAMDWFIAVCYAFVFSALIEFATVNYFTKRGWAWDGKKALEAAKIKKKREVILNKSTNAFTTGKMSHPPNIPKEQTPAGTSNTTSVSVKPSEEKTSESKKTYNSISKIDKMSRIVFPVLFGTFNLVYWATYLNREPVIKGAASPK
Sequence of alpha 5 containing receptors (P63079 26-473 partner): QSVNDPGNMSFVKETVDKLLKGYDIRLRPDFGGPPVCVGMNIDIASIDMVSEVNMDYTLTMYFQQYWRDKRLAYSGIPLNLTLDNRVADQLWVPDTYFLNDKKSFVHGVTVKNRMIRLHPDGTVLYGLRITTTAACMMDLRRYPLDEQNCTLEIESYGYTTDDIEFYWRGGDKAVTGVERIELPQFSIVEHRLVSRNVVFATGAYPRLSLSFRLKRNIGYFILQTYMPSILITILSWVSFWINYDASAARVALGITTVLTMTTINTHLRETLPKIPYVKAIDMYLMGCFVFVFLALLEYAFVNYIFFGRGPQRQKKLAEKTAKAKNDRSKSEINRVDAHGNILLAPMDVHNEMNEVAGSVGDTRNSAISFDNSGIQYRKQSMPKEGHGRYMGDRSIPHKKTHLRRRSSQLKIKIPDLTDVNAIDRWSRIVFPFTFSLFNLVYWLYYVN
Sequence of alpha 5 containing receptors (P18508 39-466): as the sequence (P18508 39-466) above

alpha 3 receptors = alpha 3 receptors (UniProt P18508+P34903); conditions: cited from earlier work
Sequence of alpha 3 receptors (P34903 29-492): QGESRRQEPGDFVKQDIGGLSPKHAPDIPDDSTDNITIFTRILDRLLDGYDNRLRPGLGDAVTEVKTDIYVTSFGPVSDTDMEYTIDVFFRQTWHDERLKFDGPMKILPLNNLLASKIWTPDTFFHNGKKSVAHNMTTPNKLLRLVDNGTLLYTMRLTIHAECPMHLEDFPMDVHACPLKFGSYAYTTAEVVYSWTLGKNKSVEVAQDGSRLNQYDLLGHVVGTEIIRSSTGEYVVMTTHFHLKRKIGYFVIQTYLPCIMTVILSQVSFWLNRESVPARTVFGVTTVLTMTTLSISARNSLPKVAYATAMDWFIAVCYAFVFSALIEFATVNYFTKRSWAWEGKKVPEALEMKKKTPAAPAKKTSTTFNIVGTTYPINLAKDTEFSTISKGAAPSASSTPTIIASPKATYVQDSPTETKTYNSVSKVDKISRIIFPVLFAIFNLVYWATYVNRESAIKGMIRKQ
Sequence of alpha 3 receptors (P63138 25-474 partner limits assumed): as the sequence (P63138 25-474 partner limits assumed) above
Sequence of alpha 3 receptors (P18508 39-466): as the sequence (P18508 39-466) above

[10] = target: alpha 1 containing receptors (UniProt P14867+P18508); conditions: cited from earlier work
[11] = haloperidol 0.5 mg/kg i.p. + flumazenil 5 mg/kg i.p.
[12] = haloperidol 0.5 mg/kg i.p., MK-801 0.1 mg/kg i.p.

T1 sequence (P62813 28-455): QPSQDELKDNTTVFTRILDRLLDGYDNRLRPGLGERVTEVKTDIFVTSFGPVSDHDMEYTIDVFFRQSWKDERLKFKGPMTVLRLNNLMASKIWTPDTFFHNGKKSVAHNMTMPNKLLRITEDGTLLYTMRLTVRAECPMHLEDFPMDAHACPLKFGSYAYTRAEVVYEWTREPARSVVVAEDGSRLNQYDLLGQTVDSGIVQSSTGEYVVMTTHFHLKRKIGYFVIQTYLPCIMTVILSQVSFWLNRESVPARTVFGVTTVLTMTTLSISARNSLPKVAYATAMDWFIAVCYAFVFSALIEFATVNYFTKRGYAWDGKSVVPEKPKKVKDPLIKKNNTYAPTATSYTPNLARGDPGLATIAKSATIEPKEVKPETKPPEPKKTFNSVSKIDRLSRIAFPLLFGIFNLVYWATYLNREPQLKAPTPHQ

SMILES: NCC1(CC(=O)O)CCCCC1 [gabapentin]
- effect on 5-HT release / extracellular 5-HT in the brain [1]: decrease

SMILES: CCCC(CCC)C(=O)O [Valproate]
- effect on 5-HT release / extracellular 5-HT in the brain [1]: enhances

SMILES: CN1C(=O)CN=C(c2ccccc2)c2cc(Cl)ccc21 [Diazepam, reference compound]
- maximal positive modulation of GABA-induced current ([2]; α1-containing receptors, maximum at 30 μM (ELB139), at 1 μM (diazepam)): 2.2±0.9 fold
- Potentiation* (Diazepam) ([2]; α1β2γ2, with GABA EC20, graphically determined): 2.2 ± 0.9
- concentration at which the current was potentiated [3]: 10 nM
- maximal positive modulation of GABA-induced current ([3]; maximum at 30 μM (ELB139), at 1 μM (diazepam)): 2±0.05 fold
- Potentiation* (Diazepam) ([3]; with GABA EC20, graphically determined): 2 ± 0.05
- concentration at which positive current modulations were first measurable ([4]; α2 containing receptors): below 0.1 μM
- maximal agonism, potentiation of GABA-induced current ([4]; α2β2γ2, at 1 μM diazepam): 1.8 fold
- Potentiation* (Diazepam) ([4]; α2β2γ2, with GABA EC20, graphically determined): 1.8 ± 0.6
- modulation of GABA-induced currents (in words) [5]: no significant modulation
- concentrations at which positive current modulation was observable ([6]; α3-containing receptors): below 10 nM
- Potentiation* (Diazepam) ([6]; α3β2γ2, with GABA EC20, graphically determined): 1.8 ± 0.11

SMILES: CNCCC(Oc1ccc(C(F)(F)F)cc1)c1ccccc1 (stereo not drawn) [fluoxetine, N-methyl-γ-[4-(trifluoromethyl)phenoxy] benzenepropanamine, reference compound]
- climbing behaviour (male Wistar rats): not changed
- swimming time (male Wistar rats): increased
- time spent immobile (male Wistar rats): reduced

SMILES: NC(=O)N1c2ccccc2C=Cc2ccccc21 [Carbamazepine]
- effect on 5-HT release / extracellular 5-HT in the brain [1]: increase

SMILES: O=C(CCCN1CCC(O)(c2ccc(Cl)cc2)CC1)c1ccc(F)cc1 [Haloperidol, 4-(4-[4-chlorophenyl]-4-hydroxy-1-piperidinyl)-1-(4-fluorophenyl)-1-nutanone, reference compound]
- all symptoms induced by MK-801 [7]: significantly reduced all symptoms
- MK-801-induced ataxia, combination with flumazenil [8, 11]: significantly reversed
- effects on activity, distance, sniffing and other stereotypies when flumazenil is added [8, 11]: not affected
- MK-801-induced ataxia ([8]; haloperidol 0.5 mg/kg i.p. alone, MK-801 0.1 mg/kg i.p.): only marginally reduced
- MK-801-increased activity [8, 12]: significantly reversed
- MK-801-increased distance travelled [8, 12]: significantly reversed
- MK-801-induced other stereotypies [8, 12]: slightly reduced
- MK-801-induced sniffing (stereotypies) [8, 12]: significantly reversed

SMILES: O=C1NC(=O)C(c2ccccc2)(c2ccccc2)N1 [phenytoin]
- effect on 5-HT release / extracellular 5-HT in the brain [1]: decrease

SMILES: Cn1c2ccc(F)cc2c2c(C(=O)N3CCCC3)cn(-c3ccccc3)c(=O)c21 [SL651498]
- partial agonistic activity (alpha 2 receptors): 100%
- partial agonistic activity [9]: 40-50%
- activity (alpha 3 receptors): 70%
- partial agonistic activity [10]: 40-50%

Source: patent publication US20050032863A1, “Method of treating or preventing central nervous system disorders with compounds having selectivity for the alpha 3 subunit of the benzodiazepine receptor” (priority 2003, published 2005)
